# Measured values as given in ChEMBL document CHEMBL1149398, “Pyrrolizidine esters and amides as 5-HT4 receptor agonists and antagonists” (J Med Chem, 2006).
# Calls of active or inactive are those of the source. No cut-off for these calls is given here.
# Legend:
# [1] = target: T1, 5-hydroxytryptamine receptor 4 (Rattus norvegicus, UniProt Q62758); assay: Antagonism at 5HT4 receptor in rat tunica muscularis mucosa; type: functional, tissue-based; conditions: read-out: pA2 (converted)
# [2] = target: 5-hydroxytryptamine receptor 4 (Rattus norvegicus) (UniProt Q62758); assay: Antagonism at 5HT4 receptor in rat tunica muscularis mucosa upto 100-1000 nM; type: functional, tissue-based
# [3] = target: T2, Serotonin 3 (5-HT3) receptor (Rattus norvegicus, UniProt P35563+Q9JJ16); assay: Displacement of [3H]GR65630 from 5HT3 receptor in brain cortex from Wistar rat; type: tissue-based
# T2 sequence (P35563 whole entry): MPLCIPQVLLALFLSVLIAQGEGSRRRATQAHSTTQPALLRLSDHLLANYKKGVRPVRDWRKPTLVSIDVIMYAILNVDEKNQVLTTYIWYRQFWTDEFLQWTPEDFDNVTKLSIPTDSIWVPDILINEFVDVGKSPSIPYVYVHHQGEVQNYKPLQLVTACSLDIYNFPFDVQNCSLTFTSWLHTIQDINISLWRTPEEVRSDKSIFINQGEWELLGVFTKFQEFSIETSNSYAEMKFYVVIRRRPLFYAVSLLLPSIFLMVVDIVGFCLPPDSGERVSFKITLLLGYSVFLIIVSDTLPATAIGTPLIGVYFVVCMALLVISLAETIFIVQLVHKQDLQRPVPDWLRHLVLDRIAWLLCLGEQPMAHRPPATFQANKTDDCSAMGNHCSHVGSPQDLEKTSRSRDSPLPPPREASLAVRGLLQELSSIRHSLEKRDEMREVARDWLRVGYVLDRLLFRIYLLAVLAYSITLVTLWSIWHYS
# T2 sequence (Q9JJ16 whole entry): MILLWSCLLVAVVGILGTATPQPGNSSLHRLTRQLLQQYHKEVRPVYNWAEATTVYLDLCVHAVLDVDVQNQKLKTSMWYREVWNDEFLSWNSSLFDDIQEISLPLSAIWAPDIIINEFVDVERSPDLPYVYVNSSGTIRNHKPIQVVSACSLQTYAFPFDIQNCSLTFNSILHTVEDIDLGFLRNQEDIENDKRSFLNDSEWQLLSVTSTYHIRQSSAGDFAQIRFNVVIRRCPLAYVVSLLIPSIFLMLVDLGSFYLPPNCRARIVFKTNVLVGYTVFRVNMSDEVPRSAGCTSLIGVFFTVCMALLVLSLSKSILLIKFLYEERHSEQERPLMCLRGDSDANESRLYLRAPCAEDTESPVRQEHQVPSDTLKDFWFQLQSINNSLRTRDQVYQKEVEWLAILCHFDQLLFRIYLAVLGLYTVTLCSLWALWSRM
# [4] = target: T3, 5-hydroxytryptamine receptor 4 (Cavia porcellus, UniProt O70528); assay: Displacement of [3H]GR-113808 from 5HT4 receptor in guinea pig striatum
# [5] = target: T4, Serotonin 3 receptor (5HT3) (Mus musculus) (UniProt Q9JHJ5+P23979); assay: Antagonism at 5HT3 receptor in mice by von Bezold-Jarisch reflex inhibition at 1 mg/kg, ip; type: functional, organism-based; design: dose 1 mg/kg
# [6] = target: T4, Serotonin 3 receptor (5HT3) (Mus musculus); assay: Antagonism at 5HT3 receptor in mice by von Bezold-Jarisch reflex inhibition at 10 mg/kg, ip; type: functional, organism-based; design: dose 10 mg/kg
# [7] = target: T1, 5-hydroxytryptamine receptor 4; assay: Agonism at 5HT4 receptor in rat tunica muscularis mucosa; type: functional
# [8] = target: T4, Serotonin 3 receptor (5HT3) (Mus musculus); assay: Antagonism at 5HT3 receptor in mice by von Bezold-Jarisch reflex inhibition at 0.3 mg/kg, ip; type: functional, organism-based; design: dose 0.3 mg/kg
# [9] = target: 5-hydroxytryptamine receptor 4 (Rattus norvegicus) (UniProt Q62758); assay: Antagonism at 5HT4 receptor in rat tunica muscularis mucosa at 0.1 uM; type: functional, tissue-based
# [10] = target: T4, Serotonin 3 receptor (5HT3) (Mus musculus); assay: Antagonism at 5HT3 receptor in mice by von Bezold-Jarisch reflex inhibition at 1000 mg/kg, ip; type: functional, organism-based; design: dose 1000 mg/kg
# [11] = Binding affinity to 5HT1 receptor
# [12] = tested on: Canis familiaris; assay: Effect on solid gastric emptying in iv dosed dog; type: functional
# [13] = target: Beta-2 adrenergic receptor (Homo sapiens, UniProt P07550); assay: Binding affinity to adrenergic beta-2 receptor
# [14] = target: Beta-1 adrenergic receptor (Homo sapiens, UniProt P08588); assay: Binding affinity to adrenergic beta-1 receptor
# [15] = target: D(1A) dopamine receptor (Homo sapiens, UniProt P21728); assay: Binding affinity to dopamine receptor D1
# [16] = tested on: Canis familiaris; assay: Contractile response of the antrum in iv dosed fasted dog; type: functional; conditions: Canis lupus familiaris
# [17] = target: D(2) dopamine receptor (Homo sapiens, UniProt P14416); assay: Binding affinity to dopamine receptor D2
# [18] = target: T4, Serotonin 3 receptor (5HT3) (Mus musculus); assay: Antagonism at 5HT3 receptor in mice by von Bezold-Jarisch reflex inhibition at 3 mg/kg, ip; type: functional, organism-based; design: dose 3 mg/kg
# [19] = tested on: Salmonella typhi; assay: Mutagenic activity in a GLP study using Salmonella Typhimurium TA100 in presence of S9 fraction at 10-5000 ug/plate; type: toxicity, organism-based; conditions: salmonella enterica subsp. enterica […]
# [20] = tested on: Salmonella typhi; assay: Mutagenic activity in a GLP study using Salmonella Typhimurium TA98 in presence of S9 fraction at 10-5000 ug/plate; type: toxicity, organism-based; conditions: salmonella enterica subsp. enterica […]
# [21] = tested on: Salmonella typhi; assay: Mutagenic activity in a GLP study using Salmonella Typhimurium TA1535 in presence of S9 fraction at 10-5000 ug/plate; type: toxicity, organism-based; conditions: salmonella enterica subsp. enterica […]
# [22] = target: T3, 5-hydroxytryptamine receptor 4; assay: Inhibition of [3H]GR-113808 binding to 5HT4 receptor in guinea pig striatum at 500 nM; type: tissue-based
# [23] = tested on: Salmonella typhi; assay: Mutagenic activity in a GLP study using Salmonella Typhimurium TA97 in presence of S9 fraction at 10-5000 ug/plate; type: toxicity, organism-based; conditions: salmonella enterica subsp. enterica […]
# [24] = tested on: Salmonella typhi; assay: Mutagenic activity in a GLP study using Salmonella Typhimurium TA1538 in presence of S9 fraction at 10-5000 ug/plate; type: toxicity, organism-based; conditions: salmonella enterica subsp. enterica […]
# [25] = Canis lupus familiaris, Stomach
# Sequence of D(2) dopamine receptor (P14416 whole entry): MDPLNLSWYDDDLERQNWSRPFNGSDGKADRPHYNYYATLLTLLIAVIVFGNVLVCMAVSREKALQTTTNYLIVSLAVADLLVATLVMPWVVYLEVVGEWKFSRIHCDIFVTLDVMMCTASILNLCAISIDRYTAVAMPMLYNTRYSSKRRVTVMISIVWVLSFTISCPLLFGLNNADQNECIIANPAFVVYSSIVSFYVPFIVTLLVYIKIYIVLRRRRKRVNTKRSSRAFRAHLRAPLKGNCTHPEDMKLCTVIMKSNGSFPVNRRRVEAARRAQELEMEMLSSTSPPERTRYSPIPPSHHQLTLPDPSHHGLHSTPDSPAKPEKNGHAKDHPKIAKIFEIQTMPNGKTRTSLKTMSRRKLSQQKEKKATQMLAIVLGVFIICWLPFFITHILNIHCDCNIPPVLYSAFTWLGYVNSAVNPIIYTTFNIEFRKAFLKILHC
# T4 sequence (P23979 whole entry, looked up): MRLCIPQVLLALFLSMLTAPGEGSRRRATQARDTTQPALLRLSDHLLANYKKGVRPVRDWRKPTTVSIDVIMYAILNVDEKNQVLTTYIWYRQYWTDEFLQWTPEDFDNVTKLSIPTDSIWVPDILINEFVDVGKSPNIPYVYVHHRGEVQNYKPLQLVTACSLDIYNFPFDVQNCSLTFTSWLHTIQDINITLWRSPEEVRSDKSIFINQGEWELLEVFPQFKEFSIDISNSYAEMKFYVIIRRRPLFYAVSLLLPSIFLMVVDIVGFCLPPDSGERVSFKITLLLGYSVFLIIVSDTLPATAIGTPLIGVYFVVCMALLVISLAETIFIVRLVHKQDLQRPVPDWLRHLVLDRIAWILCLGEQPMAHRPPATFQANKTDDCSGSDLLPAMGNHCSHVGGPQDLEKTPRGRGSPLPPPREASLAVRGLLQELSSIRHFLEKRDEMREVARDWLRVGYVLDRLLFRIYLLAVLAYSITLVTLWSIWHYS
# T4 sequence (Q9JHJ5 whole entry, looked up): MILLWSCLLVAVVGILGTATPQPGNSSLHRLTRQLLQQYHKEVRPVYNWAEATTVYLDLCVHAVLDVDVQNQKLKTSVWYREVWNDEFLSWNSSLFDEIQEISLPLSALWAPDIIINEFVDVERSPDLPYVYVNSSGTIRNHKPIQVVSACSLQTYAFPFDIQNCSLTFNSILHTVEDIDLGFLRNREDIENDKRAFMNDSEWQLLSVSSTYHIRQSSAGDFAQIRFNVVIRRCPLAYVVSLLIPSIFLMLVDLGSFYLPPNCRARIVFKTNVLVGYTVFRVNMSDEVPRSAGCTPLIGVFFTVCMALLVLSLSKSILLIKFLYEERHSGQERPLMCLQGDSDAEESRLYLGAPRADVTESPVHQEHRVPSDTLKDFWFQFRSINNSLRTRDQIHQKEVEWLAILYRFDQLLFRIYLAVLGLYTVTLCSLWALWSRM
# T3 sequence (O70528 whole entry): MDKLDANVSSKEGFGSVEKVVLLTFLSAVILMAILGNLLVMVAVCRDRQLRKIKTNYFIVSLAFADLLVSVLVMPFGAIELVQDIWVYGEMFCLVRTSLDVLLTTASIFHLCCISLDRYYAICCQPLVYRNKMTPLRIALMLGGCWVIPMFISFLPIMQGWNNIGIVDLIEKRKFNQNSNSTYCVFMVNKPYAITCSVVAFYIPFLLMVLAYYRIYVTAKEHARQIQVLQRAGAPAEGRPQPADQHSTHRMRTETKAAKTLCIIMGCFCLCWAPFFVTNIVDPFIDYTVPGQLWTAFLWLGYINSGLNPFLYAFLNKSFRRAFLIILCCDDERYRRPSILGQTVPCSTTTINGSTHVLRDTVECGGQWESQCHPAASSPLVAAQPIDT
# T1 sequence (Q62758 whole entry): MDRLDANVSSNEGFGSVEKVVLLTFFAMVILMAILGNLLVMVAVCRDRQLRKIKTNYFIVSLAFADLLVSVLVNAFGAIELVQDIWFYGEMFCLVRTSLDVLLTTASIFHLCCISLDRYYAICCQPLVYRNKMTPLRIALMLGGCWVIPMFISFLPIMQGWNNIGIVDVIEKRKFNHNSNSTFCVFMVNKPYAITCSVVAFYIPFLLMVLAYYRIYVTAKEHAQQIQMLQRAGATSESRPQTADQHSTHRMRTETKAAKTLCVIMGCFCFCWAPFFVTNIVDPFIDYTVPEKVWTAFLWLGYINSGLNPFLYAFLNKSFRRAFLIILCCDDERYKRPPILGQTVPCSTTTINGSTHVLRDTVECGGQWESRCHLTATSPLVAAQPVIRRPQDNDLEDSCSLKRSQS
# Sequence of 5-hydroxytryptamine receptor 4 (Rattus norvegicus) (Q62758 whole entry): as above
# Sequence of Beta-2 adrenergic receptor (P07550 whole entry): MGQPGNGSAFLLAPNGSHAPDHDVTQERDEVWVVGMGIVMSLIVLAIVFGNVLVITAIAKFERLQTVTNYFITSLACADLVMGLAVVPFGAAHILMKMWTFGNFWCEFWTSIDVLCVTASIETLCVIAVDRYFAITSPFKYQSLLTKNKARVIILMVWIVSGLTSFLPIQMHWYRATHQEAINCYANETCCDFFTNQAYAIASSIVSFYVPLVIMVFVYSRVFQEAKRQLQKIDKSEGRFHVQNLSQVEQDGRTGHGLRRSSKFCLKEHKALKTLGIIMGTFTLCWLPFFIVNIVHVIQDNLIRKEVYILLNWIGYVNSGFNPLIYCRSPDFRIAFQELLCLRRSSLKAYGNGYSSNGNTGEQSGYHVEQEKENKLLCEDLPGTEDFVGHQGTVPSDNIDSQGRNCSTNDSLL
# Sequence of Beta-1 adrenergic receptor (P08588 whole entry): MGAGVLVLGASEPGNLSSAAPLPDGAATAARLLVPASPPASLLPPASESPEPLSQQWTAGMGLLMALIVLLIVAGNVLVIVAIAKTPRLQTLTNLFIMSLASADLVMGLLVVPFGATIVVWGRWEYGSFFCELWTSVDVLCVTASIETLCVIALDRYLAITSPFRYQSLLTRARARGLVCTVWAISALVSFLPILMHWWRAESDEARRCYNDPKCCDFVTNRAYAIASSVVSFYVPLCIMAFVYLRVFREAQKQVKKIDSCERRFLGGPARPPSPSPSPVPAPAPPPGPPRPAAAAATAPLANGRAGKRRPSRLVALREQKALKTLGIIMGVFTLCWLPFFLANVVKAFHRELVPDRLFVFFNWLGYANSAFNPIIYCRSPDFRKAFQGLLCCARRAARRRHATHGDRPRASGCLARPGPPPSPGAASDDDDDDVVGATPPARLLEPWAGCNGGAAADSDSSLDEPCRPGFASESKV
# Sequence of D(1A) dopamine receptor (P21728 whole entry): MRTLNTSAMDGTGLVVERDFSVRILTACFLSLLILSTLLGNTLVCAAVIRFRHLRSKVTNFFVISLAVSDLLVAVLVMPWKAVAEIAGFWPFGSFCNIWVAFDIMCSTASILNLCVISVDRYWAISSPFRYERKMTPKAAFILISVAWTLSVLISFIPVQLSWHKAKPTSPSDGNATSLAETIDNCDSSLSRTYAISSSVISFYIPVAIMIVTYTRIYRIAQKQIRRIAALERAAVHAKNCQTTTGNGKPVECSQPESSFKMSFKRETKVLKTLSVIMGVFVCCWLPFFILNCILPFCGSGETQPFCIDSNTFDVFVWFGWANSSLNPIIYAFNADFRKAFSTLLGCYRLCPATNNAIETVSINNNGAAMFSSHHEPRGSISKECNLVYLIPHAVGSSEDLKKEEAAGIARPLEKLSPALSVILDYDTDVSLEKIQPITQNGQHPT
compound,measurement,setting,value
O=C(NC[C@@H]1CCN2CCC[C@@H]12)c1cccn2ccnc12,Kb,[1],178 nM
COc1ccc2[nH]cc(C(=O)OC[C@@H]3CCN4CCC[C@@H]34)c2c1,Kb,[1],70.8 nM
Cn1cc(C(=O)NC[C@@H]2CCN3CCC[C@@H]23)c2ccccc21,pA2,[2],inactive
O=C(OC[C@@H]1CCN2CCC[C@@H]12)c1c[nH]c2ccc(F)cc12,Kb,[1],3.16 nM
same,Ki,[3],10 nM
same,Ki,[4],0.7 nM
CC(C)n1c(=O)n(C(=O)NC[C@@H]2CCN3CCC[C@@H]23)c2ccccc21 (relative stereo),Ki,[3],20.2 nM
same,inhibition,[5],62%
same,Ki,[4],7 nM
same,inhibition,[6],87%
same,EC50,[7],374 nM
same,inhibition,[8],0%
Cn1c(C(=O)OC[C@@H]2CCN3CCC[C@@H]23)cc2ccccc21,pA2,[9],inactive
COc1cc(N)c(Cl)cc1C(=O)NC[C@@H]1CC[N@@+]2(C)CCC[C@@H]12,inhibition,[10],16%
same,Ki,[4],0.35 nM
same,EC50,[7],129 nM
CCc1cc(C(=O)NC[C@@H]2CCN3CCC[C@@H]23)c2ccccn12 (relative stereo),pA2,[2],inactive
COc1cc(N)c(Cl)cc1C(=O)NC1CCN(CCCOc2ccc(F)cc2)CC1OC (stereo not drawn) [CISAPRIDE],IC50,[11],> 1000 nM
same,ED50,[12]; [25],0.03 mg/kg
same,IC50,[13],> 10000 nM
same,IC50,[14],> 10000 nM
same,IC50,[15],1700 nM
same,ED50,[16],0.056 mg/kg
CCOc1cc(N)c(Cl)cc1C(=O)NC[C@@H]1CCN2CCC[C@@H]12,Ki,[3],25 nM
same,inhibition,[6],89%
same,IC50,[17],5300 nM
same,EC50,[7],195 nM
same,inhibition,[18],48%
CC1(C)C(=O)N(C(=O)NC[C@@H]2CCN3CCC[C@@H]23)c2ccccc21,Kb,[1],100 nM
O=C(OC[C@@H]1CCN2CCC[C@@H]12)c1cc(Cl)cn2ccnc12,Kb,[1],178 nM
CCc1nc(C(=O)NC[C@@H]2CCN3CCC[C@@H]23)c2ccccn12 (relative stereo),Kb,[1],275 nM
COc1cc(N)c(Cl)cc1C(=O)NC[C@H]1CCN2CCC[C@H]12,ED50,[12]; [25],1 mg/kg
same,Activity,[19],Not Active
same,Activity,[20],Not Active
same,Activity,[21],Not Active
same,inhibition,[5],20%
same,inhibition,[6],87%
same,IC50,[17],3900 nM
same,EC50,[7],323 nM
same,inhibition,[18],79%
same,inhibition,[22],18%
same,Activity,[23],Not Active
same,Activity,[24],Not Active
same,ED50,[16],0.45 mg/kg
Cc1cnc2c(C(=O)NC[C@@H]3CCN4CCC[C@@H]34)cc(Cl)cn12,Kb,[1],81.3 nM
COc1cc(N)c(Cl)cc1C(=O)N[C@H]1CCN2CCC[C@@H]1C2,ED50,[12]; Canis lupus familiaris; Stomach,Active
same,EC50,[7],98 nM
same,ED50,[16],0.015 mg/kg
COc1cc(N)c(Cl)cc1C(=O)OC[C@@H]1CCN2CCC[C@@H]12,Ki,[3],51 nM
same,Ki,[4],0.183 nM
same,inhibition,[6],0%
same,IC50,[17],> 10000 nM
same,EC50,[7],1.5 nM
